The pIC50 is −log10 of the IC50, conventionally taken in molar units.

pIC50: −log10 of the molar value.

For this test, the target named is T1, recombinant human 5-lipoxygenase (Homo sapiens, UniProt P09917).
T1 construct: made in house; host or cells: Sf9 cells infected with recombinant baculovirus rvH5LO (8-1)
T1 sequence (P09917 1-674): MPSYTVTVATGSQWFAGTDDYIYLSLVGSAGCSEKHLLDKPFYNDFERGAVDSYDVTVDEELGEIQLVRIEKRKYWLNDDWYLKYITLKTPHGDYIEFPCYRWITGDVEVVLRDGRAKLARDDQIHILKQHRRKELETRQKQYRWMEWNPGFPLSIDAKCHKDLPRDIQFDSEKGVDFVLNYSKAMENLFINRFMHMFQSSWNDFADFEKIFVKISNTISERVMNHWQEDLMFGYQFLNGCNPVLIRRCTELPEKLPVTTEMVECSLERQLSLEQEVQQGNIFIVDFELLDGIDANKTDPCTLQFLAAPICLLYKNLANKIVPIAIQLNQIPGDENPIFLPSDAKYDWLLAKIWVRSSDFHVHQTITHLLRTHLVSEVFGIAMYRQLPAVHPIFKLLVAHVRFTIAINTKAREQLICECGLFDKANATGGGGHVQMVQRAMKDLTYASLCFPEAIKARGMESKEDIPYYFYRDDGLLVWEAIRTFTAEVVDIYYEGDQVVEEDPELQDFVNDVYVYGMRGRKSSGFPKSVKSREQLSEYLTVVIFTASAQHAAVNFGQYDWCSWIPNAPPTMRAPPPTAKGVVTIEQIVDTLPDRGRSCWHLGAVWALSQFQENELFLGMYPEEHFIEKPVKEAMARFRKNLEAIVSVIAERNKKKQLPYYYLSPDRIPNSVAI
As to the kind of experiment: Human 5-Lipoxygenase Enzyme Assay. The format is biochemical. The following applies: spectrophotometric assay, purified recombinant human 5-lipoxygenase, 20 μM arachidonic acid. How it is done: Compounds of this invention can be tested using the following assays to determine their mammalian leukotriene biosynthesis inhibiting activity.
Human 5-Lipoxygenase Enzyme Assay
The activity of 5-lipoxygenase was measured using a spectrophotometric assay and recombinant human 5-lipoxygenase as a source of enzyme. Human 5-lipoxygenase was purified from Sf9 cells infected with the recombinant baculovirus rvH5LO (8-1) containing the coding sequence for human 5-lipoxygenase as described by Percival et al., (Eur. J. Biochem 210, 109-117, 1992). The enzymatic activity was measured using a spectrophotometric assay from the optimal rate of conjugated diene formation (absorbance at 238 nm) using the procedure described in Riendeau et al. (Biochem. Pharmacol. 38, 2313-2321, 1989) with minor modifications. The incubation mixture contained 25 mM potassium phosphate, pH 7.5, 0.1 mM EDTA, 0.3 mM CaCl2, 24 μg/ml phosphatidylcholine, 0.1 mM ATP, 0.5 mM DTT, 20 μM arachidonic acid (2 μl from a 100-fold solution in ethanol), inhibitor (2 μl aliquot from a 100-fold solution in DMSO) and an aliquot of purified 5-lipoxygenase. Reactions were initiated by the addition of the purified 5-lipoxygenase and the rate of conjugated diene production was followed for 5 minutes at room temperature. The reaction was performed in a Costar UV plate (Cat. # 3635) and the absorbance changes at 238 nm were recorded with a Molecular Devices UV/VIS 96 well spectrophotometer (Spectra Max 190) using SOFTmax PRO software. Enzymatic activity was calculated from the optimal rate of the reaction by a linear fit of the increase in absorbance at 238 nm over 36 seconds. When the rate of diene formation is low (<0.01 Absorbance Unit/min) the linear fit is performed over 180 seconds.
For `CC[C@](O)(c1cn(Cc2ccc3c(-c4ccccc4)cc(C#N)nc3c2)nn1)C(F)(F)F` [Example 39, (S)-7-({4-[1-hydroxy-1-(trifluoromethyl)propyl]-1H-1,2,3-triazol-1-yl}methyl)-4-phenylquinoline-2-carbonitrile], the pIC50 is 7.47.

In the case of `CCC(O)(CC)c1cn(Cc2ccc3c(-c4cccc(F)c4)cc(=O)oc3c2)nn1` [Example 12, 7-[4-(1-Ethyl-1-hydroxy-propyl)-[1,2,3]triazol-1-ylmethyl]-4-(3-fluoro-phenyl)-chromen-2-one], the pIC50 is 6.49.

For the molecule `CC[C@](O)(c1cn(Cc2ccc3c(-c4ccccc4F)cc(=O)oc3c2)nn1)C(F)(F)F` [Example 3, (S)-4-(2-Fluoro-phenyl)-7-[4-(1-hydroxy-1-trifluoromethyl-propyl)-[1,2,3]triazol-1-ylmethyl]-chromen-2-one], the pIC50 was 5.92.

As to `N#Cc1cc(-c2cccc(F)c2)c2ccc(Cn3cc(C(O)(C4CC4)C4CC4)nn3)cc2n1` [Example 47, 7-({4-[dicyclopropyl(hydroxy)methyl]-1H-1,2,3-triazol-1-yl}methyl)-4-(3-fluorophenyl)-quinoline-2-carbonitrile], the pIC50 was 7.21.

Regarding `CC[C@](O)(c1cn(Cc2ccc3c(-c4coc(C)n4)cc(=O)oc3c2)nn1)C(F)(F)F` [Example 37, (S)-7-({4-[1-hydroxy-1-(trifluoromethyl)propyl]-1H-1,2,3-triazol-1-yl}methyl)-4-(2-methyl-1,3-oxazol-4-yl)-2H-chromen-2-one], the pIC50 is 6.45.

In the case of `CC[C@](O)(c1cn(Cc2ccc3c(-c4ccsc4)cc(=O)oc3c2)nn1)C(F)(F)F` [Example 8, (S)-7-[4-(1-Hydroxy-1-trifluoromethyl-propyl)-[1,2,3]triazol-1-ylmethyl]-4-thiophen-3-yl-chromen-2-one], the pIC50 is 7.30.

Turning to `CC[C@](O)(c1cn(Cc2ccc3c(-c4ccc(F)cc4)cc(N(C)C)nc3c2)nn1)C(F)(F)F` [Example 87, (S)-2-(1-{[2-(dimethylamino)-4-(4-fluorophenyl)quinolin-7-yl]methyl}-1H-1,2,3-triazol-4-yl)-1,1,1-trifluorobutan-2-ol], the pIC50 was 7.77.

For the molecule `CC[C@](O)(c1cn(Cc2ccc3c(-c4cc(Cl)cc(Cl)c4)cc(C#N)nc3c2)nn1)C(F)(F)F` [Example 57, (S)-4-(3,5-dichlorophenyl)-7-({4-[1-hydroxy-1-(trifluoromethyl)propyl]-1H-1,2,3-triazol-1-yl}methyl)quinoline-2-carbonitrile], the pIC50 is 7.07.

Take `CC[C@](O)(c1cn(Cc2ccc3c(-c4cccc(F)c4)cc(C#N)nc3c2)nn1)C(F)(F)F` [Example 40, (S)-4-(3-fluorophenyl)-7-({4-[1-hydroxy-1-(trifluoromethyl)propyl]-1H-1,2,3-triazol-1-yl}methyl)quinoline-2-carbonitrile]: the pIC50 is 7.27.

In the case of `CC[C@](O)(c1cn(Cc2ccc3c(-c4ccc(F)cc4)cc(OC)nc3c2)nn1)C(F)(F)F` [Example 88, (S)-1,1-trifluoro-2-(1-{[4-(4-fluorophenyl)-2-methoxyquinolin-7-yl]methyl}-1H-1,2,3-triazol-4-yl)butan-2-ol], the pIC50 is 7.39.

With `CCC(O)(CC)c1cn(Cc2ccc3c(-c4ccccc4)cc(C#N)nc3c2)nn1` [Example 43, 7-{[4-(1-ethyl-1-hydroxypropyl)-1H-1,2,3-triazol-1-yl]methyl}-4-phenylquinoline-2-carbonitrile], the pIC50 was 6.56.

As for `CCCC(O)(c1cn(Cc2ccc3c(-c4cccc(F)c4)cc(=O)oc3c2)nn1)C(F)(F)F` (stereo not drawn) [Example 30, 4-(3-Fluorophenyl)-7-({4-[1-hydroxy-1-(trifluoromethyl)butyl]-1H-1,2,3-triazol-1-yl}methyl)-2H-chromen-2-one], the pIC50 was 7.43.

On to `CC[C@](O)(c1cn(Cc2ccc3c(-c4ccc(F)cc4)cc(C#N)nc3c2)nn1)C(F)(F)F` [Example 41, (S)-4-(4-fluorophenyl)-7-({4-[1-hydroxy-1-(trifluoromethyl)propyl]-1H-1,2,3-triazol-1-yl}methyl)quinoline-2-carbonitrile], for which the pIC50 was 7.29.

Turning to `CC[C@](O)(c1cn(Cc2ccc3c(-c4ccccc4)cc(=O)oc3c2)nn1)C(F)(F)F` [Example 5, (S)-7-[4-(1-Hydroxy-1-trifluoromethyl-propyl)-[1,2,3]triazol-1-ylmethyl]-4-phenyl-chromen-2-one], the pIC50 was 7.35.

As to `CCC(O)(c1nnn(Cc2ccc3c(-c4cccc(F)c4)cc(=O)oc3c2)c1C)C(F)(F)F` (stereo not drawn) [Example 27, 4-(3-fluorophenyl)-7-{[4-(1-hydroxy-1-(trifluoromethyl)propyl)-5-methyl-1H-1,2,3-triazol-1-yl}methyl]-2H-chromen-2-one], the negative logarithm of the IC50 (pIC50) was 6.53.

On to `O=c1cc(-c2cccc(F)c2)c2ccc(Cn3cc(Cc4ccccc4)nn3)cc2o1` [Example 22, 7-[(4-benzyl-1H-1,2,3-triazol-1-yl)methyl]-4-(3-fluorophenyl)-2H-chromen-2-one], for which the pIC50 was 6.02.

On to `CCC(O)(CC)c1cn(Cc2ccc3c(-c4ccc(F)cc4)cc(=O)oc3c2)nn1` [Example 16, 7-[4-(1-Ethyl-1-hydroxy-propyl)-[1,2,3]triazol-1-ylmethyl]-4-(4-fluoro-phenyl)-chromen-2-one], for which the pIC50 is 6.35.

On to `CC[C@](O)(c1cn(Cc2ccc3c(-c4ccccc4)cc(C(N)=O)nc3c2)nn1)C(F)(F)F` [Example 69, (S)-7-({4-[1-hydroxy-1-(trifluoromethyl)propyl]-1H-1,2,3-triazol-1-yl}methyl)-4-phenylquinoline-2-carboxamide], for which the pIC50 was 7.46.

Turning to `CC[C@](O)(c1cn(Cc2ccc3c(-c4cccc(F)c4)cc(=O)oc3c2)nn1)C(F)(F)F` [Example 1, (S)-4-(3-fluorophenyl)-7-({4-[1-hydroxy-1-(trifluoromethyl)propyl]-1H-1,2,3-triazol-1-yl}methyl)-2H-chromen-2-one], the pIC50 was 7.42.

For the molecule `O=c1cc(-c2ccc(F)cc2)c2ccc(Cn3cc(C(O)(C4CC4)C4CC4)nn3)cc2o1` [Example 26, 7-[4-(Dicyclopropyl-hydroxy-methyl)-[1,2,3]triazol-1-ylmethyl]-4-(4-fluoro-phenyl)-chromen-2-one], the negative logarithm of the IC50 (pIC50) is 7.01.

Take `CC[C@](O)(c1cn(Cc2ccc3c(-c4cc(F)cc(F)c4)cc(C#N)nc3c2)nn1)C(F)(F)F` [Example 58, (S)-4-(3,5-difluorophenyl)-7-({4-[1-hydroxy-1-(trifluoromethyl)propyl]-1H-1,2,3-triazol-1-yl}methyl)quinoline-2-carbonitrile]: the pIC50 is 7.28.

For `CC[C@](O)(c1cn(Cc2ccc3c(-c4ccc(F)cc4)cc(=O)oc3c2)nn1)C(F)(F)F` [Example 2, (S)-4-(4-Fluorophenyl)-7-[4-(1-hydroxy-1-trifluoromethyl-propyl)-[1,2,3]triazol-1-ylmethyl]-chromen-2-one], the pIC50 is 7.30.

As to `N#Cc1cc(-c2ccc(F)cc2)c2ccc(Cn3cc(C(O)(C4CC4)C4CC4)nn3)cc2n1` [Example 46, 7-({4-[dicyclopropyl(hydroxy)methyl]-1H-1,2,3-triazol-1-yl}methyl)-4-(4-fluorophenyl)quinoline-2-carbonitrile], the negative-log IC50 (pIC50) was 6.99.

Regarding `N#Cc1cc(-c2ccccc2)c2ccc(Cn3cc(C(O)(C4CC4)C4CC4)nn3)cc2n1` [Example 48, 7-({4-[dicyclopropyl(hydroxy)methyl]-1H-1,2,3-triazol-1-yl}methyl)-4-phenylquinoline-2-carbonitrile], the pIC50 is 7.09.

The values are drawn from patent US7960409B2, “Pharmaceutical phenylquinoline and chromen-2-one triazole compounds” (Merck Sharp & Dohme Corp., priority 2007, dated 2011).
